Results as given in patent US12110293B2, “Substituted triazolo quinoxaline derivatives” (GRÜNENTHAL GMBH, priority 2018, dated 2024).

Target: T1, glucocorticoid receptor (Homo sapiens, UniProt P04150)
T1 construct: expressed in transfected cells
T1 sequence (P04150 524-758 limits assumed): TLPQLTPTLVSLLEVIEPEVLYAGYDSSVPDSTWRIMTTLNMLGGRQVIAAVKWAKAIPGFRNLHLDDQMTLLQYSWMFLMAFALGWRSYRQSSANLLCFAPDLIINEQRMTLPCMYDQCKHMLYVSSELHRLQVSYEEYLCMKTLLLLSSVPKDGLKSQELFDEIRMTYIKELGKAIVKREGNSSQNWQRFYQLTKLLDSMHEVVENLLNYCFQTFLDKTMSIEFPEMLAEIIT
Assay: Agonistic mode of action on the glucocorticoid receptor (CHO-Gal4/GR luciferase reporter cell line)
Type: cell-based
Conditions: range class observed in the agonistic assay or the antagonistic assay (CHO-Gal4/GR reporter cells); table does not say which mode applies per example
Text: Potential selective glucocorticoid receptor modulators of this intervention can be tested for modulation of the activity of the glucocorticoid receptor using cell-based assays. These assays involve a Chinese hamster ovary (CHO) cell line which contains fragments of the glucocorticoid receptor as well as fusion proteins. The glucocorticoid receptor fragments used are capable of binding the ligand (e.g. beclomethasone) to identify molecules that compete for binding with glucocorticoid receptor ligands. In more detail, the glucocorticoid receptor ligand binding domain is 25 fused to the DNA binding domain (DBD) of the transcriptionfactor GAL4 (GAL4 DBD-GR) and is stably integrated into a CHO cell line containing a GAL4-UAS-Luciferase reporter construct. […] After cell lysis the luminescence that is produced by luciferase after addition of the substrate is detected and EC50 or IC50 values can be calculated. Engagement of molecules which induce gene expression via glucocortocoid receptor binding to the DNA leads to expression of the luciferase gene under the control of the fusion protein GAL4 DBD-GR and therefore to a dose-dependent increase of the luminescence signal. Binding of molecules which repress beclomethasone-induced gene expression of the luciferase gene under the control of the fusion protein GAL4 DBD-GR leads to a dose-dependent reduction of the luminescence signal.
Biological Assays Agonistic Mode of Action on the Glucocorticoid Receptor
The reporter cell line CHO-Gal4/GR consisted of a Chinese hamster ovary (CHO) cell line (Leibniz Institute DSMZ—German Collection of Microorganisms and Cell CuItures GmbH: ACC-110) containing a firefly luciferase gene under the control of the GR ligand binding domain fused to the DNA binding domain (DBD) of GAL4 (GAL4 DBD-GR) stably integrated into CHO cells. This cell line was established by stable transfection of CHO cells with a GAL4-UAS-Luciferase reporter construct. In a subsequent step the ligand binding domain of the GR cloned into pIRES2-EGFP-GAL4 containing the DNA binding domain of GAL4 from pFA-AT2 was transfected. This fusion construct activated firefly luciferase expression under the control of a multimerized GAL4 upstream activation sequence (UAS). The signal of the emitted luminescence was recorded by the FLIPR^TETRA. This allowed for specific detection of ligand-induced activation of the GR and therefore for the identification of compounds with agonistic properties. The GAL4/UAS reporter was premixed with a vector that constitutively expressed Renilla luciferase, which served as an internal positive control for transfection efficiency.
The complete culture medium for the assay was: • DMEM F-12 (1:1) MIXTURE (LONZA cat. N°: BE04-687F/U1) 500 mL • 5 mL of 100 mM Sodium Pyruvate (LONZA cat. N°: BE12-115E) • 25 mL of 7.5% Sodium Bicarbonate (LONZA cat. N° BE17-613E) • 6.5 mL of 1 M Hepes (LONZA cat. N°: BE17-737E) • 5 mL of 100× Penicillin/Streptomycin (LONZA cat. N° DE17-602E) • 50 mL of Fetal Bovine Serum (Euroclone cat. N° ECS 0180L) • 0.25 mL of 10 mg/mL Puromycin (InvivoGen cat.: ant-pr-1) • 0.5 mL of 100 mg/mL Zeocin (InvivoGen cat.: ant-zn-1)
Cryo-preserved CHO-Gal4/GR cells were suspended in complete medium and 5000 cells/25 μl/well were seeded into the wells of 384-well polystyrene assay plates (Thermo Scientific, cat. #4332) and cultured at 37° C., 5% CO2 and 95% humidity. After 24 hours growth medium was carefully removed and replaced by 30 μl Opti-MEM (GIBCO, cat. #31985062) as assay buffer. To test the compounds an 8-point half-log compound dilution curve was generated in 100% DMSO starting from a 2 mM stock and compounds were then diluted 1:50 in Opti-MEM. 10 μl of compounds were then added to the wells containing 30 μl Opti-MEM resulting in a final assay concentration range from 10 μM to 0.003 μM in 0.5% DMSO. Compounds were tested at 8 concentrations in quadruplicate data points.

Row | SMILES | IC50 or EC50 (agonist or antagonist mode not specified) [µM]
1 | Cc1nnc2n1-c1c(cc(C(F)F)c(-c3cccc4[nH]ccc34)c1F)NC2(C)C [Example 343, 7-(Difluoro-methyl)-9-fluoro-8-(1H-indol-4-yl)-1,4,4-trimethyl-5H-[1,2,4]triazolo[4,3-a]quinoxaline] | 1 to 15
2 | CCc1nnc2n1-c1c(cc(F)c(-c3cccc4c3ccn4S(C)(=O)=O)c1C)NC2(C)C [Example 247, 1-Ethyl-7-fluoro-4,4,9-trimethyl-8-(1-methylsulfonyl-1H-indol-4-yl)-5H-[1,2,4]triazolo[4,3-a]quinoxaline] | 1 to 15
3 | Cc1cc2c(-c3c(F)cc4c(c3F)-n3c(C)nnc3C(C)(C)N4)cc(F)cc2[nH]1 [Example 5, 7,9-difluoro-8-(6-fluoro-2-methyl-1H-indol-4-yl)-1,4,4-trimethyl-4,5-dihydro-[1,2,4]triazolo[4,3-a]quinoxaline] | 0.1 to 1
4 | Cc1nnc2n1-c1c(cc(OC(F)F)c(-c3cccc4c3ccn4S(C)(=O)=O)c1F)NC2(C)C [Example 275, 7-(Difluoro-methoxy)-9-fluoro-1,4,4-trimethyl-8-(1-methylsulfonyl-1H-indol-4-yl)-5H-[1,2,4]triazolo[4,3-a]quinoxaline] | 1 to 15
5 | CCc1nnc2n1-c1c(cc(F)c(-c3cc(F)cc4c3ccn4CCOC)c1C)NC2(C)C [Example 36, 1-ethyl-7-fluoro-8-(6-fluoro-1-(2-methoxyethyl)-1H-indol-4-yl)-4,4,9-trimethyl-4,5-dihydro-[1,2,4]triazolo[4,3-a]quinoxaline] | 0.1 to 1
6 | CCc1nnc2n1-c1c(cc(F)c(-c3cc(F)cc4c(C#N)c[nH]c34)c1F)NC2(C)C [Example 15, 7-(1-ethyl-7,9-difluoro-4,4-dimethyl-4,5-dihydro-[1,2,4]triazolo[4,3-a]quinoxalin-8-yl)-5-fluoro-1H-indole-3-carbonitrile] | 1 to 15
7 | Cc1nnc2n1-c1c(cc(OC(F)F)c(-c3cccc4[nH]ccc34)c1F)NC2(C)C [Example 297, 7-(Difluoro-methoxy)-9-fluoro-8-(1H-indol-4-yl)-1,4,4-trimethyl-5H-[1,2,4]triazolo[4,3-a]quinoxaline] | 1 to 15
8 | COc1c(-c2cc(F)cc3c(C)c[nH]c23)c(F)cc2c1-n1c(C)nnc1C(C)(C)N2 [Example 249, 7-Fluoro-8-(5-fluoro-3-methyl-1H-indol-7-yl)-9-methoxy-1,4,4-trimethyl-5H-[1,2,4]triazolo[4,3-a]quinoxaline] | < 0.1
9 | CCn1cc2c(-c3c(F)cc4c(c3F)-n3c(C)nnc3C(C)(C)N4)cccc2n1 [Example 237, 8-(2-Ethyl-2H-indazol-4-yl)-7,9-difluoro-1,4,4-trimethyl-5H-[1,2,4]triazolo[4,3-a]quinoxaline] | 1 to 15
10 | CCS(=O)(=O)n1ccc2c(-c3c(F)cc4c(c3F)-n3c(C)nnc3C(C)(C)N4)cc(F)cc21 [Example 18, 8-(1-(ethylsulfonyl)-6-fluoro-1H-indol-4-yl)-7,9-difluoro-1,4,4-trimethyl-4,5-dihydro-[1,2,4]triazolo[4,3-a]quinoxaline] | 0.1 to 1
11 | COc1cc2c(c(C(F)(F)F)c1-c1cc(F)cc3c1ccn3S(C)(=O)=O)-n1c(C)nnc1C(C)(C)N2 [Example 329, 8-(6-Fluoro-1-methylsulfonyl-1H-indol-4-yl)-7-methoxy-1,4,4-trimethyl-9-(trifluoromethyl)-5H-[1,2,4]triazolo[4,3-a]quinoxaline] | 0.1 to 1
12 | CC#Cc1c[nH]c2c(-c3c(F)cc4c(c3C)-n3c(CCOC)nnc3C(C)(C)N4)cc(F)cc12 [Example 79, 7-fluoro-8-(5-fluoro-3-(prop-1-yn-1-yl)-1H-indol-7-yl)-1-(2-methoxyethyl)-4,4,9-trimethyl-4,5-dihydro-[1,2,4]triazolo[4,3-a]quinoxaline] | 1 to 15

Next, values leading:

Row | IC50 or EC50 (agonist or antagonist mode not specified) [µM] | SMILES
13 | 0.1 to 1 | Cc1nnc2n1-c1c(cc(F)c(-c3cccc4c3ccn4S(=O)(=O)CC3CC3)c1C(F)F)NC2(C)C [Example 502, 8-[1-(Cyclopropyl-methylsulfonyl)-1H-indol-4-yl]-9-(difluoro-methyl)-7-fluoro-1,4,4-trimethyl-5H-[1,2,4]triazolo[4,3-a]quinoxaline]
14 | 0.1 to 1 | Cc1nnc2n1-c1c(cc(Cl)c(-c3cc(F)cc4c3cnn4CC(F)F)c1F)NC2(C)C [Example 508, 7-Chloro-8-[1-(2,2-difluoro-ethyl)-6-fluoro-1H-indazol-4-yl]-9-fluoro-1,4,4-trimethyl-5H-[1,2,4] triazolo[4,3-a]quinoxaline]
15 | 0.1 to 1 | Cc1c(-c2cc(C(F)(F)F)cc3[nH]ccc23)c(Cl)cc2c1-n1c(C)nnc1C(C)(C)N2 [Example 475, 7-Chloro-1,4,4,9-tetramethyl-8-[6-(trifluoromethyl)-1H-indol-4-yl]-5H-[1,2,4]triazolo[4,3-a]quinoxaline]
16 | 0.1 to 1 | Cc1c(-c2cccc3c2cnn3S(C)(=O)=O)c(F)cc2c1-n1c(C)nnc1C(C)(C)N2 [Example 377, 7-Fluoro-1,4,4,9-tetramethyl-8-(1-methylsulfonyl-1H-indazol-4-yl)-5H-[1,2,4]triazolo[4,3-a]quinoxaline]
17 | 0.1 to 1 | Cc1nnc2n1-c1c(cc(F)c(-c3cccc4c3cnn4S(C)(=O)=O)c1C(F)(F)F)NC2(C)C [Example 446, 7-fluoro-1,4,4-trimethyl-8-(1-(methylsulfonyl)-1H-indazol-4-yl)-9-(trifluoromethyl)-4,5-dihydro-[1,2,4]triazolo[4,3-a]quinoxaline]
18 | 0.1 to 1 | Cc1cc(-c2c(F)cc3c(c2C(F)(F)F)-n2c(C)nnc2C(C)(C)N3)c2ccn(S(C)(=O)=O)c2c1 [Example 476, 7-Fluoro-1,4,4-trimethyl-8-(6-methyl-1-methylsulfonyl-1H-indol-4-yl)-9-(trifluoromethyl)-5H-[1,2,4]triazolo [4,3-a]quinoxaline]
19 | 0.1 to 1 | Cc1nnc2n1-c1c(cc(F)c(-c3cc(F)cc4c3cnn4S(C)(=O)=O)c1C(F)(F)F)NC2(C)C [Example 454, 7-Fluoro-8-(6-fluoro-1-methylsulfonyl-1H-indazol-4-yl)-1,4,4-trimethyl-9-(trifluoromethyl)-5H-[1,2,4]triazolo[4,3-a]quinoxaline]
20 | 0.1 to 1 | COc1cc2c(c(C(F)(F)F)c1-c1cc(F)cc3c1ccn3C)-n1c(C)nnc1C(C)(C)N2 [Example 517, 8-(6-Fluoro-1-methyl-1H-indol-4-yl)-7-methoxy-1,4,4-trimethyl-9-(trifluoromethyl)-5H-[1,2,4]triazolo [4,3-a]quinoxaline]
21 | 0.1 to 1 | COCCn1ccc2c(-c3c(F)cc4c(c3C(F)F)-n3c(C)nnc3C(C)(C)N4)cc(F)cc21 [Example 402, 9-(Difluoro-methyl)-7-fluoro-8-[6-fluoro-1-(2-methoxy-ethyl)-1H-indol-4-yl]-1,4,4-trimethyl-5H-[1,2,4]triazolo[4,3-a]quinoxaline]
